According to PubChem BioAssay (NCI):
“And” between values parts separate entries of the source, which are not always exact repeats. Equal entries are not always repeated.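 Growth conditions: 96-well plates. Treatment: test compound, 48 hours, 5 concentrations. Analysis: linear interpolation between bracketing concentrations; unreached endpoints set to highest concentration. GI50 marks 50% less growth. TGI: total growth inhibition.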

How the values were obtained:
Experiment in all cases: DTP human tumour cell line panel, 48 h
HCT-116 colon = tested on: HCT-116 colon
TK-10 renal = tested on: TK-10 renal
UACC-257 melanoma = tested on: UACC-257 melanoma
CAKI-1 renal = tested on: CAKI-1 renal
NCI-H460 lung = tested on: NCI-H460 lung
SK-MEL-28 melanoma = tested on: SK-MEL-28 melanoma
SN12C renal = tested on: SN12C renal
SF-295 CNS = tested on: SF-295 CNS
K-562 leukemia = tested on: K-562 leukemia
MDA-MB-231 breast = tested on: MDA-MB-231 breast

Row | Structure (SMILES) | TGI (HCT-116 colon) [µM] | TGI (TK-10 renal) | TGI (UACC-257 melanoma) | TGI (CAKI-1 renal) [µM] | TGI (NCI-H460 lung) [µM] | TGI (SK-MEL-28 melanoma) | TGI (SN12C renal) [µM] | TGI (SF-295 CNS) | TGI (K-562 leukemia) [µM] | GI50 (HCT-116 colon) [µM] | GI50 (TK-10 renal) [µM] | GI50 (UACC-257 melanoma) [µM] | GI50 (CAKI-1 renal) [µM] | GI50 (NCI-H460 lung) [µM] | GI50 (SK-MEL-28 melanoma) [µM] | GI50 (SN12C renal) [µM] | GI50 (SF-295 CNS) [µM] | GI50 (K-562 leukemia) [µM] | GI50 (MDA-MB-231 breast) [µM] | TGI (MDA-MB-231 breast) [µM]
1 | CCOC(=O)CN(Cn1cncn1)Cn1cncn1 | > 100 | > 100 µM | 33 µM | > 100 | 57.1 | 37.1 µM | 85.3 | > 100 µM | > 100 |  |  |  |  |  |  |  |  |  |  | 
2 | [O-]c1ccccc1C=Nc1ccc2c(c1)CCC2.[O-]c1ccccc1C=Nc1ccc2c(c1)CCC2.[O]=[U+2]=[O] | > 100 | 82.2 µM | > 100 µM | > 100 | > 100 | > 100 µM | > 100 | > 100 µM | > 100 | 13.5 | 30.1 | > 100 | > 100 | 47.3 | > 100 | > 100 | > 100 | 11.8 |  | 
3 | COC(=O)C1C(=O)CC2CCCCC21 (centres undefined) | > 100 | > 100 µM | > 100 µM | > 100 | > 100 | > 100 µM | > 100 |  | > 100 |  |  |  |  |  |  |  |  |  |  | 
4 | Cc1ccc(Oc2ccccc2N)cc1 | 36 | > 100 µM | > 100 µM |  | > 100 | 80.2 µM | > 100 | > 100 µM | > 100 |  |  |  |  |  |  |  |  |  |  | 
5 | O=c1c2cc(-c3ccccc3)sc2ncn1Cc1ccc(Cl)c(Cl)c1 | 41.1 |  | > 100 µM | 49.1 | > 100 | > 100 µM | 39.1 | 30.6 µM | > 100 | 15 |  | 62.2 | 16.4 | 12.1 | 45.5 | 13.1 | 12.3 | 20.7 | 3.92 | 25
6 | COc1ccc(OC(C(=O)O)C(C)C)c2c1CCCC2=O (centres undefined) | > 100 | > 100 µM | > 100 µM | > 100 | > 100 | > 100 µM | > 100 | > 100 µM | > 100 |  |  |  |  |  |  |  |  |  |  | 
7 | N#C/C(=C\c1cccc(O)c1O)C(N)=O | > 100 | > 100 µM | > 100 µM | > 100 | > 100 | > 100 µM | > 100 | > 100 µM | > 100 |  |  |  |  |  |  |  |  |  |  | 
8 | O=C(O)/C=C\C(=O)Nc1ccccn1 | > 100 |  | > 100 µM | > 100 | > 100 | > 100 µM | > 100 | > 100 µM | > 100 |  |  |  |  |  |  |  |  |  |  | > 100
9 | CNc1ccc2ncccc2c1[N+](=O)[O-] | > 100 | > 100 µM | > 100 µM | > 100 | > 100 | > 100 µM | > 100 | > 100 µM | > 100 |  |  |  |  |  |  |  |  |  |  | 
10 | COc1ccc(-c2cc(C(=O)Nc3cc(C(F)(F)F)cc(C(F)(F)F)c3)c3ccccc3n2)cc1 | 18.6 | 29.5 µM | 51.4 µM | 25.5 | 19.4 | 73.9 µM | 25.1 | 32.5 µM | > 100 |  |  |  |  |  |  |  |  |  |  | 
11 | CCc1cccc(C)c1N1C(=O)C(=O)C(c2nc3ccccc3o2)C(=O)C1=O | > 100 | > 100 µM | > 100 µM | > 100 | > 100 | > 100 µM | > 100 | > 100 µM | > 100 |  |  |  |  |  |  |  |  |  |  | 
12 | CC(C)(O)/C=C/C(=O)[C@](C)(O)[C@H]1[C@H](O)C[C@@]2(C)[C@@H]3CC=C4[C@@H](C[C@H](O)C(=O)C4(C)C)[C@]3(C)C(=O)C[C@]12C |  | 0.473 µM and 0.495 µM | 0.598 µM and 2.81 µM |  | 20.4 | 0.0828 µM and 0.432 µM | 28 | 0.629 µM and 2.61 µM | 37 | 0.164 |  |  | 1.85 | 0.0509 | 0.028 | 0.355 | 0.264 | 0.0608 |  | 
13 | C#CCNC(=O)NCCCCC(NC(=O)OCc1ccccc1)C(=O)OCc1ccccc1 (centres undefined) | > 100 | > 100 µM | > 100 µM | 97.3 | > 100 | > 100 µM | > 100 | > 100 µM | > 100 |  |  |  |  |  |  |  |  |  |  | 
14 | CCn1c(-c2cc3c([nH]c4ccccc43)c(-c3cccc(O)c3)n2)n[nH]c1=S | 15 | 14.8 µM | 16.4 µM |  | 10.7 | 12.3 µM | 22.1 | 22.8 µM | > 100 | 3.88 | 3.64 | 4.11 |  | 3.04 | 2.63 | 4.02 | 3.24 | 1.88 | 2.79 | 15.6
15 | COC(=O)C1=C(CS(=O)c2ccc([N+](=O)[O-])cc2[N+](=O)[O-])C2C=CC1C2 (centres undefined) | 45.1 | 51.7 µM | 92.2 µM | 39.6 | > 100 |  | 50.2 | > 100 µM | 52.5 |  |  |  |  |  |  |  |  |  |  | 
16 | CCN1CCN(c2cc(C)nc(N(CCCNc3ccnc4cc(Cl)ccc34)Cc3ccc4c(c3)OCO4)n2)CC1 | 13.6 | 3.87 µM | 3.23 µM |  | 11.2 | 3.46 µM | > 100 | 3.82 µM | 7.86 | 2.45 | 1.84 | 1.72 |  | 3.07 | 1.84 | 4.13 | 1.91 | 1.91 | 1.93 | 4.44

Row | Structure (SMILES) | TGI (HCT-116 colon) [µM] | TGI (TK-10 renal) | TGI (UACC-257 melanoma) | TGI (CAKI-1 renal) [µM] | TGI (NCI-H460 lung) [µM] | TGI (SK-MEL-28 melanoma) | TGI (SN12C renal) [µM] | TGI (SF-295 CNS) | TGI (K-562 leukemia) [µM] | GI50 (HCT-116 colon) [µM] | GI50 (TK-10 renal) [µM] | GI50 (UACC-257 melanoma) [µM] | GI50 (CAKI-1 renal) [µM] | GI50 (NCI-H460 lung) [µM] | GI50 (SK-MEL-28 melanoma) [µM] | GI50 (SN12C renal) [µM] | GI50 (SF-295 CNS) [µM] | GI50 (K-562 leukemia) [µM] | GI50 (MDA-MB-231 breast) [µM] | TGI (MDA-MB-231 breast) [µM]
17 | C[Si](C)(C)C(CCCCSc1ccccc1)(Sc1ccccc1)Sc1ccccc1 | > 100 | > 100 µM | > 100 µM | > 100 | > 100 | > 100 µM | > 100 | > 100 µM | > 100 |  |  |  |  |  |  |  |  |  |  | 
18 | C#CCNC(=O)ON1C(=O)CCC1=O | > 100 | > 100 µM | > 100 µM |  | > 100 | > 100 µM | > 100 | > 100 µM | > 100 |  |  |  |  |  |  |  |  |  |  | 
19 | O=C1OC(c2ccccc2)=N/C1=C\c1ccc(Oc2ccc(Cl)c(Cl)c2)cc1 | > 100 | > 100 µM | > 100 µM |  | > 100 |  | > 100 | > 100 µM | 73.6 |  |  |  |  |  |  |  |  |  |  | 
20 | Cc1ccc(S(=O)(=O)N=NC=C2c3ccccc3N(O)c3ccccc32)cc1 | 1.94 | 16.5 µM | 23.7 µM | 23.8 | 5.99 | 14.5 µM | 16.6 | 21.6 µM | 13 |  |  |  |  |  |  |  |  |  |  | 
21 | COC(=O)C12CC(NC(=O)c3csc([C@@H](C[C@H](C(C)C)N(C)C(=O)[C@@H](NC(=O)[C@H]4CCCCN4C)C4CC4)OC(C)=O)n3)(C1)C2 | > 16.7 | > 16.7 µM | > 16.7 µM |  | > 16.7 | > 16.7 µM | > 16.7 | > 16.7 µM | > 16.7 | 0.0228 | 1.15 | > 16.7 |  | 0.0472 | 0.148 | 0.0207 | 0.0422 | 0.00549 | 0.0435 | > 16.7
22 | O=C(C#Cc1ccccc1)N1c2ccccc2CC1c1c[nH]c2ccccc12 (centres undefined) | 26.5 | 44.2 µM | 42 µM | 33.2 | 42.3 | 30.5 µM | 26.9 | 49.7 µM | 49 |  |  |  |  |  |  |  |  |  |  | 
23 | Cl/C(N=Nc1ccccc1)=N/Nc1ccccc1 | > 100 | > 100 µM | > 100 µM | > 100 | > 100 | > 100 µM | > 100 | > 100 µM | > 100 |  |  |  |  |  |  |  |  |  |  | 
24 | O=c1nc(-c2ccccc2)cc(CC(O)c2ccc(Cl)c(Cl)c2)[nH]1 (centres undefined) | > 100 | > 100 µM | > 100 µM | > 100 | > 100 | > 100 µM | > 100 | > 100 µM | > 100 |  |  |  |  |  |  |  |  |  |  | 
25 | O=C(O)c1cc(=O)c2c([nH]c3ccccc32)s1 |  | > 100 µM | > 100 µM | > 100 | > 100 | > 100 µM | > 100 | > 100 µM | > 100 |  |  |  |  |  |  |  |  |  |  | 
26 | CC(=O)NC(CCCCN)C(=O)NCc1ccccc1 (centres undefined) | > 100 | > 100 µM | > 100 µM | > 100 | > 100 | > 100 µM | > 100 | > 100 µM | > 100 |  |  |  |  |  |  |  |  |  |  | 
27 | CN(C)/C=N\c1ccnc(=O)[nH]1 | > 100 | > 100 µM | > 100 µM | > 100 | > 100 | > 100 µM | > 100 | > 100 µM | > 100 |  |  |  |  |  |  |  |  |  |  | 
28 | N/C(=N\NS(=O)(=O)c1ccccc1)Oc1ccc(Br)cc1Br | > 100 | > 100 µM | > 100 µM | > 100 | > 100 | > 100 µM | > 100 | > 100 µM | > 100 |  |  |  |  |  |  |  |  |  |  | 
29 | Cc1cc(NC(=O)C2C3C=CC(O3)C2C(=O)O)no1 (centres undefined) | 32 | > 100 µM | 64 µM |  | > 100 | > 100 µM | > 100 | > 100 µM | 42.5 |  |  |  |  |  |  |  |  |  |  | 
30 | CC1(c2cc3c(cc2Br)OCO3)SCCCS1 | > 100 | > 100 µM |  |  | > 100 | > 100 µM | > 100 | > 100 µM | > 100 |  |  |  |  |  |  |  |  |  |  | 
31 | Cc1cc(C)nc(/C(=N\NC(N)=O)C(=O)Nc2nc3ccc(C)cc3s2)c1 | > 100 | > 100 µM | > 100 µM | > 100 | > 100 | > 100 µM | > 100 | > 100 µM | > 100 |  |  |  |  |  |  |  |  |  |  | 
